This is an account of results in ChEMBL document CHEMBL4014302, “Studies on anti-hepatoma activity of Annona squamosa L. pericarp extract” (Bioorg Med Chem Lett, 2017).

Broadly, the IC50 is the concentration that gives 50% inhibition. Low values mean inhibition by little substance, high ones a need for much substance.

Assay [1] relates to SMMC-7721. In words: Induction of apoptosis in human SMMC7721 cells assessed as necrotic cells at IC50 after 24 hrs by annexin V/PI-staining based flow cytometry (Rvb =1.6 %). Type of assay: functional.
Assay [2] has as its system SMMC-7721. In words: Induction of apoptosis in human SMMC7721 cells assessed as early apoptotic cells at IC50 after 24 hrs by annexin V/PI-staining based flow cytometry (reference value: 0.6 %). In kind it is functional. (In flow cytometry, cells or beads pass a laser one at a time.)
Assay [3] deals with SMMC-7721. In words: Cell cycle arrest in human SMMC7721 cells assessed as sub-G1 phase accumulation at half IC50 after 24 hrs by propidium iodide-staining based flow cytometry (reference value: 0.8 %). Type of assay: functional.
The test system of assay [4] is SMMC-7721. In words: Induction of apoptosis in human SMMC7721 cells assessed as late apoptotic cells at half IC50 after 24 hrs by annexin V/PI-staining based flow cytometry (reference value: 0.5 %). Type of assay: functional.
In assay [5] the test system is SMMC-7721. In words: Induction of apoptosis in human SMMC7721 cells assessed as condensed nuclei after 24 hrs by Hoechst 33258 staining based fluorescent microscopic method. In kind it is functional, cell-based.
The test system of assay [6] is SMMC-7721. In words: Induction of apoptosis in human SMMC7721 cells assessed as live cells at half IC50 after 24 hrs by annexin V/PI-staining based flow cytometry (reference value: 97.3 %). In kind it is functional.
Assay [7] relates to SMMC-7721. In words: Induction of apoptosis in human SMMC7721 cells assessed as decrease in Bcl2 levels after 24 hrs by Western blot method. In kind it is functional, cell-based.
For assay [8], the system named is SMMC-7721. Put plainly: Cell cycle arrest in human SMMC7721 cells assessed as S phase accumulation at half IC50 after 24 hrs by propidium iodide-staining based flow cytometry (reference value: 12.7 %). In kind it is functional.
The subject of assay [9] is SMMC-7721. Put plainly: Induction of apoptosis in human SMMC7721 cells assessed as increase in cleaved caspase 9 levels after 24 hrs by Western blot method. Type of assay: functional, cell-based. (In general: Immunoblotting shows a protein as a band on a membrane.)
The subject of assay [10] is SMMC-7721. In words: Induction of apoptosis in human SMMC7721 cells assessed as broken nuclei after 24 hrs by Hoechst 33258 staining based fluorescent microscopic method. In kind it is functional, cell-based.
The test system of assay [11] is SMMC-7721. In words: Induction of apoptosis in human SMMC7721 cells assessed as increase in cleaved caspase 3 levels after 24 hrs by Western blot method. Type of assay: functional, cell-based.
Assay [12] concerns SMMC-7721. In words: Cell cycle arrest in human SMMC7721 cells assessed as G2/M phase accumulation at half IC50 after 24 hrs by propidium iodide-staining based flow cytometry (reference value: 28.8 %). Type of assay: functional.
For assay [13], the system named is SMMC-7721. In words: Induction of apoptosis in human SMMC7721 cells assessed as increase in Bax levels after 24 hrs by Western blot method. In kind it is functional, cell-based.
For assay [14], the system named is SMMC-7721. In words: Cell cycle arrest in human SMMC7721 cells assessed as S phase accumulation at IC50 after 24 hrs by propidium iodide staining based flow cytometry (reference value: 12.7 %). Type of assay: functional.
Assay [15] concerns SMMC-7721. In words: Induction of apoptosis in human SMMC7721 cells assessed as necrotic cells at half IC50 after 24 hrs by annexin V/PI-staining based flow cytometry (Rvb =1.6 %). In kind it is functional.
The subject of assay [16] is SMMC-7721. In words: Cell cycle arrest in human SMMC7721 cells assessed as G1 phase accumulation at half IC50 after 24 hrs by propidium iodide-staining based flow cytometry (reference value: 57.6 %). In kind it is functional.
Assay [17] relates to SMMC-7721. Put plainly: Induction of apoptosis in human SMMC7721 cells assessed as late apoptotic cells at IC50 after 24 hrs by annexin V/PI-staining based flow cytometry (reference value: 0.5 %). Type of assay: functional.
In assay [18] the test system is SMMC-7721. In words: Induction of apoptosis in human SMMC7721 cells assessed as early apoptotic cells at half IC50 after 24 hrs by annexin V/PI-staining based flow cytometry (reference value: 0.6 %). In kind it is functional.
In assay [19] the test system is SMMC-7721. In words: Induction of apoptosis in human SMMC7721 cells assessed as increase in cleaved caspase 8 levels after 24 hrs by Western blot method. In kind it is functional, cell-based.
Assay [20] relates to SMMC-7721. Put plainly: Induction of apoptosis in human SMMC7721 cells assessed as live cells at IC50 after 24 hrs by annexin V/PI-staining based flow cytometry (reference value: 97.3 %). Type of assay: functional.
Assay [21] deals with SMMC-7721. In words: Induction of apoptosis in human SMMC7721 cells after 24 hrs by annexin V/PI-staining based flow cytometry. In kind it is functional, cell-based.
Assay [22] concerns SMMC-7721. In words: Cytotoxicity against human SMMC7721 cells after 48 hrs by MTT assay. In kind it is functional, cell-based. To be noted: SMMC-7721, 48 h. (In general: Formazan colour is commonly taken as a measure of viable cells.)
The test system of assay [23] is SMMC-7721. In words: Cell cycle arrest in human SMMC7721 cells assessed as sub-G1 phase accumulation at IC50 after 24 hrs by propidium iodide staining based flow cytometry (reference value: 0.8 %). In kind it is functional.
Assay [24] relates to SMMC-7721. In words: Cell cycle arrest in human SMMC7721 cells assessed as G2/M phase accumulation at IC50 after 24 hrs by propidium iodide staining based flow cytometry (reference value: 28.8 %). Type of assay: functional.
Assay [25] relates to SMMC-7721. In words: Cell cycle arrest in human SMMC7721 cells assessed as G1 phase accumulation at IC50 after 24 hrs by propidium iodide staining based flow cytometry (reference value: 57.6 %). Type of assay: functional.
Assay [26] concerns H22. In words: Antitumor activity against mouse H22 cells implanted in Kunming mouse assessed as tumor weight at 15 mg/kg, po administered once daily for 7 days (reference value: 0.66 +/- 0.18 g). Type of assay: functional.
Assay [27] has as its system H22. Put plainly: Antitumor activity against mouse H22 cells implanted in Kunming mouse assessed as tumor growth inhibition at 15 mg/kg, po administered once daily for 7 days relative to control. Type of assay: functional. To be noted: 168 h, read-out: TGI.

In the case of `C=C1C[C@@]23CC[C@H]4[C@@](C)(CCC[C@@]4(C)C(=O)O)[C@@H]2CC[C@H]1C3`, the Activity with SMMC-7721 [1] was 2.6%; with SMMC-7721 [2], 12.9%; with SMMC-7721 [3], 1%; with SMMC-7721 [4], 5.1%; in the assay with SMMC-7721 [5], “Dose-dependent effect”; with SMMC-7721 [6], 80.4%. Further, the Activity entry in the assay on SMMC-7721 [7] was “Dose-dependent effect”; in the assay on SMMC-7721 [8], 11.2%; in the assay with SMMC-7721 [9], “Dose-dependent effect”; in the assay with SMMC-7721 [10] it was “Dose-dependent effect”; in the assay with SMMC-7721 [11] it was “Dose-dependent effect”; in the assay on SMMC-7721 [12], 26.9%. For the same compound, the Activity entry with SMMC-7721 [13] is “Dose-dependent effect”; in the assay on SMMC-7721 [14], 7.7%; in the assay with SMMC-7721 [15], 3.8%; in the assay on SMMC-7721 [16] it was 61%; in the assay with SMMC-7721 [17], 5.2%; with SMMC-7721 [18], 10.7%. Moreover, the Activity result in the assay on SMMC-7721 [19] was “Dose-dependent effect”; in the assay with SMMC-7721 [20] it was 79.3%; in the assay on SMMC-7721 [21], “Dose-dependent effect”; in the assay on SMMC-7721 [23], 1.2%; with SMMC-7721 [24] it was 18%; in the assay with SMMC-7721 [25], 73.3%. This compound came in with a 50% inhibitory concentration (IC50) in the assay with SMMC-7721 [22] of 67.4 µM.
As for `CC1=C[C@@]23CC[C@H]4[C@@](C)(CCC[C@@]4(C)C(=O)O)[C@@H]2CC[C@H]1C3`, the Activity was 6.4% in the assay with SMMC-7721 [1]; 10.8% in the assay on SMMC-7721 [2]; 1.1% in the assay on SMMC-7721 [3]; 3.5% in the assay on SMMC-7721 [4]; “Dose-dependent effect” in the assay with SMMC-7721 [5]; 85.2% in the assay on SMMC-7721 [6]. In addition, the Activity with SMMC-7721 [8] is 14.8%; in the assay on SMMC-7721 [10], “Dose-dependent effect”; with SMMC-7721 [12] it was 25.5%; in the assay with SMMC-7721 [14], 11%; in the assay on SMMC-7721 [15], 3.4%; in the assay on SMMC-7721 [16], 58.5%. Further, the Activity is 7.4% in the assay with SMMC-7721 [17]; 7.8% with SMMC-7721 [18]; 75.4% in the assay on SMMC-7721 [20]; “Dose-dependent effect” with SMMC-7721 [21]; 0.3% in the assay with SMMC-7721 [23]; 26.9% in the assay on SMMC-7721 [24]. Moreover, the Activity in the assay with SMMC-7721 [25] amounted to 60.9%. In the assay on SMMC-7721 [22], the IC50 is 45.7 µM.
As for `O=c1[nH]cc(F)c(=O)[nH]1` [FLUOROURACIL], the Activity in the assay with H22 [26] came to 0.36 g. The inhibition in vivo at 15 mg/kg in the assay with H22 [27] came to 44.7%.
